Assay results reported in PubChem BioAssay AID1963839 (Molecular Pharmacology Branch, DTP, NCI, 2024).
pIC50: −log10 of the molar value.

Test system: 817829-284-R-J1-PDC complex spheroid viability
Test: Anticancer human tumor 817829-284-R-J1-PDC patient-derived colon adenocarcinoma cell line growth inhibition [POLQ]
Conditions: for pIC50: curve of first compound; for viability, T/C: stronger effect = lower value
In short: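 Patient-derived tumour cells were co-cultured with HUVEC and mesenchymal stem cells as multicellular spheroids at 37 °C. They were treated with POLQ inhibitors (novobiocin, ART-558, RP6685) alone or combined with other agents. Top concentrations were at or near clinical Cmax (otherwise 10 microM; SN-38 at 1 microM), decreasing in half-log steps.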

[1] = second compound 0.0316 µM, first compound 0.0316 µM
[2] = second compound 0.0316 µM, first compound 0.1 µM
[3] = second compound 0.1 µM, first compound 0.0316 µM
[4] = second compound 0.1 µM, first compound 0.1 µM
[5] = second compound 0.316 µM, first compound 0.0316 µM
[6] = second compound 0.316 µM, first compound 0.1 µM
[7] = second compound 1 µM, first compound 0.0316 µM
[8] = second compound 1 µM, first compound 0.1 µM
[9] = second compound 3.16 µM, first compound 0.0316 µM
[10] = second compound 3.16 µM, first compound 0.1 µM
[11] = second compound 10 µM, first compound 0.0316 µM
[12] = second compound 10 µM, first compound 0.1 µM
[13] = second compound 0.0316 µM, first compound 0.316 µM
[14] = second compound 0.0316 µM, first compound 1 µM
[15] = second compound 0.0316 µM, first compound 3.16 µM
[16] = second compound 0.0316 µM, first compound 10 µM
[17] = second compound 0.1 µM, first compound 0.316 µM
[18] = second compound 0.1 µM, first compound 1 µM
[19] = second compound 0.1 µM, first compound 3.16 µM
[20] = second compound 0.1 µM, first compound 10 µM
[21] = second compound 0.316 µM, first compound 0.316 µM
[22] = second compound 0.316 µM, first compound 1 µM
[23] = second compound 0.316 µM, first compound 3.16 µM
[24] = second compound 0.316 µM, first compound 10 µM
[25] = second compound 1 µM, first compound 0.316 µM
[26] = second compound 1 µM, first compound 1 µM
[27] = second compound 1 µM, first compound 3.16 µM
[28] = second compound 1 µM, first compound 10 µM
[29] = second compound 3.16 µM, first compound 0.316 µM
[30] = second compound 3.16 µM, first compound 1 µM
[31] = second compound 3.16 µM, first compound 3.16 µM
[32] = second compound 3.16 µM, first compound 10 µM
[33] = second compound 10 µM, first compound 0.316 µM
[34] = second compound 10 µM, first compound 1 µM
[35] = second compound 10 µM, first compound 3.16 µM
[36] = second compound 10 µM, first compound 10 µM
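Also: spheroids exposed to compounds for 7 days.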
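For viability, T/C in this document: 100% = DMSO vehicle-treated spheroids.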

CC[C@@]1(O)C(=O)OCc2c1cc1n(c2=O)Cc2cc3c(CN(C)C)c(O)ccc3nc2-1 + Cc1cccc(N(C)C(=O)C2C(O)CCN2c2nc(C)cc(C(F)(F)F)c2C#N)c1
pIC50 (second compound 0.0316 µM): 8.16
pIC50 (second compound 0.1 µM): 8.12
pIC50 (second compound 0.316 µM): 8.09
pIC50 (second compound 1 µM): 8.16
pIC50 (second compound 3.16 µM): 8.14
pIC50 (second compound 10 µM): 8.16
viability, T/C (second compound 0.0316 µM, first compound 0.000316 µM): 109%
viability, T/C (second compound 0.0316 µM, first compound 0.001 µM): 121%
viability, T/C (second compound 0.0316 µM, first compound 0.00316 µM): 78.5%
viability, T/C (second compound 0.0316 µM, first compound 0.01 µM): 38%
viability, T/C [1]: 22.6%
viability, T/C [2]: 18.1%
viability, T/C (second compound 0.1 µM, first compound 0.000316 µM): 87.9%
viability, T/C (second compound 0.1 µM, first compound 0.001 µM): 118%
viability, T/C (second compound 0.1 µM, first compound 0.00316 µM): 72.8%
viability, T/C (second compound 0.1 µM, first compound 0.01 µM): 43.6%
viability, T/C [3]: 23.5%
viability, T/C [4]: 17.4%
viability, T/C (second compound 0.316 µM, first compound 0.000316 µM): 103%
viability, T/C (second compound 0.316 µM, first compound 0.001 µM): 96.8%
viability, T/C (second compound 0.316 µM, first compound 0.00316 µM): 61.6%
viability, T/C (second compound 0.316 µM, first compound 0.01 µM): 54.1%
viability, T/C [5]: 20%
viability, T/C [6]: 15.3%
viability, T/C (second compound 1 µM, first compound 0.000316 µM): 124%
viability, T/C (second compound 1 µM, first compound 0.001 µM): 84.9%
viability, T/C (second compound 1 µM, first compound 0.00316 µM): 76.2%
viability, T/C (second compound 1 µM, first compound 0.01 µM): 38.9%
viability, T/C [7]: 22%
viability, T/C [8]: 17.2%
viability, T/C (second compound 3.16 µM, first compound 0.000316 µM): 89.7%
viability, T/C (second compound 3.16 µM, first compound 0.001 µM): 123%
viability, T/C (second compound 3.16 µM, first compound 0.00316 µM): 83.2%
viability, T/C (second compound 3.16 µM, first compound 0.01 µM): 37.2%
viability, T/C [9]: 21.4%
viability, T/C [10]: 16.8%
viability, T/C (second compound 10 µM, first compound 0.000316 µM): 89.5%
viability, T/C (second compound 10 µM, first compound 0.001 µM): 113%
viability, T/C (second compound 10 µM, first compound 0.00316 µM): 82.7%
viability, T/C (second compound 10 µM, first compound 0.01 µM): 34.8%
viability, T/C [11]: 22.2%
viability, T/C [12]: 14.6%

CNCc1ccc(-c2[nH]c3cc(F)cc4c3c2CCNC4=O)cc1 + Cc1cccc(N(C)C(=O)C2C(O)CCN2c2nc(C)cc(C(F)(F)F)c2C#N)c1
pIC50 (second compound 0.0316 µM): 5.65
pIC50 (second compound 0.1 µM): 5.12
pIC50 (second compound 0.316 µM): 5.47
pIC50 (second compound 1 µM): 5.57
pIC50 (second compound 3.16 µM): 5.48
pIC50 (second compound 10 µM): 5.42
viability, T/C [1]: 87.5%
viability, T/C [2]: 67.2%
viability, T/C [13]: 68.4%
viability, T/C [14]: 58.2%
viability, T/C [15]: 49.9%
viability, T/C [16]: 33.9%
viability, T/C [3]: 74.9%
viability, T/C [4]: 67.8%
viability, T/C [17]: 86.7%
viability, T/C [18]: 60.4%
viability, T/C [19]: 74.7%
viability, T/C [20]: 43%
viability, T/C [5]: 97.8%
viability, T/C [6]: 76.5%
viability, T/C [21]: 70.5%
viability, T/C [22]: 66.6%
viability, T/C [23]: 53.7%
viability, T/C [24]: 36.3%
viability, T/C [7]: 104%
viability, T/C [8]: 71.9%
viability, T/C [25]: 86.4%
viability, T/C [26]: 55.9%
viability, T/C [27]: 51.8%
viability, T/C [28]: 33.1%
viability, T/C [9]: 82.4%
viability, T/C [10]: 54.2%
viability, T/C [29]: 79.1%
viability, T/C [30]: 77.9%
viability, T/C [31]: 50.9%
viability, T/C [32]: 30.3%
viability, T/C [11]: 70.9%
viability, T/C [12]: 78.1%
viability, T/C [33]: 67.1%
viability, T/C [34]: 62.5%
viability, T/C [35]: 55.6%
viability, T/C [36]: 31.4%

CC1COCCN1c1cc(-c2ccnn2C)c2ccnc(-c3ccn[nH]3)c2n1 (stereo not given) + COC1C(OC(N)=O)C(O)C(Oc2ccc3c(O)c(NC(=O)c4ccc(O)c(CC=C(C)C)c4)c(=O)oc3c2C)OC1(C)C
pIC50 (second compound 0.0316 µM): > 7.50
pIC50 (second compound 0.1 µM): > 7.50
pIC50 (second compound 0.316 µM): > 7.50
pIC50 (second compound 1 µM): > 7.50
pIC50 (second compound 3.16 µM): > 7.50
pIC50 (second compound 10 µM): > 7.50
viability, T/C [1]: 30.4%
viability, T/C [2]: 13.2%
viability, T/C [13]: 5.49%
viability, T/C [14]: 4.46%
viability, T/C [15]: 3.26%
viability, T/C [16]: 3.12%
viability, T/C [3]: 38.1%
viability, T/C [4]: 12.8%
viability, T/C [17]: 4.68%
viability, T/C [18]: 4.07%
viability, T/C [19]: 3.1%
viability, T/C [20]: 3.09%
viability, T/C [5]: 38.2%
viability, T/C [6]: 11.9%
viability, T/C [21]: 5.3%
viability, T/C [22]: 4.05%
viability, T/C [23]: 3.4%
viability, T/C [24]: 2.6%
viability, T/C [7]: 26.4%
viability, T/C [8]: 11.9%
viability, T/C [25]: 5.6%
viability, T/C [26]: 4.46%
viability, T/C [27]: 3.01%
viability, T/C [28]: 2.34%
viability, T/C [9]: 42.2%
viability, T/C [10]: 11%
viability, T/C [29]: 7.02%
viability, T/C [30]: 4.4%
viability, T/C [31]: 2.97%
viability, T/C [32]: 2.67%
viability, T/C [11]: 47.5%
viability, T/C [12]: 13.4%
viability, T/C [33]: 5.44%
viability, T/C [34]: 4.22%
viability, T/C [35]: 3.19%
viability, T/C [36]: 2.65%

C#Cc1c(F)ccc2cc(O)cc(-c3ncc4c(N5CC6CCC(C5)N6)nc(OCC56CCCN5CC(F)C6)nc4c3F)c12 (stereo not given) + Nc1ccc(C#CCN(C(=O)Cc2ncc(C(F)(F)F)cc2C(F)(F)F)c2ccc(F)cc2)nn1
pIC50 (second compound 0.0316 µM): < 5.00
pIC50 (second compound 0.1 µM): < 5.00
pIC50 (second compound 0.316 µM): < 5.00
pIC50 (second compound 1 µM): < 5.00
pIC50 (second compound 3.16 µM): < 5.00
pIC50 (second compound 10 µM): < 5.00
viability, T/C [1]: 78.6%
viability, T/C [2]: 105%
viability, T/C [13]: 104%
viability, T/C [14]: 93.8%
viability, T/C [15]: 114%
viability, T/C [16]: 84.2%
viability, T/C [3]: 92.1%
viability, T/C [4]: 87.9%
viability, T/C [17]: 93%
viability, T/C [18]: 92.4%
viability, T/C [19]: 103%
viability, T/C [20]: 92.7%
viability, T/C [5]: 101%
viability, T/C [6]: 94.5%
viability, T/C [21]: 105%
viability, T/C [22]: 86.8%
viability, T/C [23]: 116%
viability, T/C [24]: 91.8%
viability, T/C [7]: 106%
viability, T/C [8]: 88.4%
viability, T/C [25]: 98.6%
viability, T/C [26]: 91.6%
viability, T/C [27]: 97.9%
viability, T/C [28]: 101%
viability, T/C [9]: 97.5%
viability, T/C [10]: 99.8%
viability, T/C [29]: 101%
viability, T/C [30]: 86.9%
viability, T/C [31]: 93.2%
viability, T/C [32]: 95.7%
viability, T/C [11]: 95.5%
viability, T/C [12]: 102%
viability, T/C [33]: 73.8%
viability, T/C [34]: 102%
viability, T/C [35]: 96.3%
viability, T/C [36]: 80.4%

CNCc1ccc(-c2[nH]c3cc(F)cc4c3c2CCNC4=O)cc1 + Nc1ccc(C#CCN(C(=O)Cc2ncc(C(F)(F)F)cc2C(F)(F)F)c2ccc(F)cc2)nn1
pIC50 (second compound 0.0316 µM): 5.17
pIC50 (second compound 0.1 µM): 5.11
pIC50 (second compound 0.316 µM): < 5.00
pIC50 (second compound 1 µM): < 5.00
pIC50 (second compound 3.16 µM): 5.14
pIC50 (second compound 10 µM): 5.09
viability, T/C [1]: 85.2%
viability, T/C [2]: 83.8%
viability, T/C [13]: 86.4%
viability, T/C [14]: 73.8%
viability, T/C [15]: 67.4%
viability, T/C [16]: 41.2%
viability, T/C [3]: 81%
viability, T/C [4]: 97%
viability, T/C [17]: 83%
viability, T/C [18]: 73.8%
viability, T/C [19]: 65.3%
viability, T/C [20]: 45.8%
viability, T/C [5]: 80.6%
viability, T/C [6]: 88.7%
viability, T/C [21]: 82.8%
viability, T/C [22]: 60.8%
viability, T/C [23]: 65%
viability, T/C [24]: 52.9%
viability, T/C [7]: 97.7%
viability, T/C [8]: 86.5%
viability, T/C [25]: 90.1%
viability, T/C [26]: 73.3%
viability, T/C [27]: 74.3%
viability, T/C [28]: 48%
viability, T/C [9]: 103%
viability, T/C [10]: 83.6%
viability, T/C [29]: 83.2%
viability, T/C [30]: 85.8%
viability, T/C [31]: 83.6%
viability, T/C [32]: 37.3%
viability, T/C [11]: 86.2%
viability, T/C [12]: 75.7%
viability, T/C [33]: 76.9%
viability, T/C [34]: 79.5%
viability, T/C [35]: 75.2%
viability, T/C [36]: 44.1%
